Like-named read-outs stand apart in the source and are kept apart here.

For one data set, the system named is HuH-7 cells. Briefly: Inhibition of HuH-7 cell proliferation (CellTiter-Glo). The data set is classed as cell-based. Conditions: Homo sapiens, read-out: HuH-7 IC50. How it is done:
In this experiment, the inhibitory effect of the compounds on HuH-7 cell proliferation was tested by a CellTiter-Glo method, and the half maximal inhibitory concentration (IC50) of the compounds on the activity of cell proliferation was determined.
1) A 96-well cell culture plate was seeded with 50˜100 μL of HuH-7 cell suspension at a density of 1˜5×10^4 cells/ml. The culture plate was incubated in an incubator for 16˜24 hours (37° C., 5% CO2).
(§1) 2) Different concentrations of the test compound in a gradient dilution were added to the cells in the culture plate. The culture plate was incubated in an incubator for 72 hours (37° C., 5% CO2).
3) 50˜100 μL of CellTiter-Glo reagent was added to each well. Then, the culture plate was shaken or left to stand for 5˜30 minutes at room temperature.
(§2) 4) The chemiluminescence signal values of each plate were determined by a microplate reader.
(§3) 5) The inhibition rates were calculated according to the chemiluminescence signal values.
(§4) 6) The IC50 of the compound was obtained by curve fitting according to the inhibition rates at different concentrations, and the cell activity of the specific example compounds is shown in Table 2.
On the technique in general: Cellular ATP, detected with luciferase, serves as a proxy for viable cell number.

For a further data set, the system named is SK-HEP-1 cells. Briefly: Inhibition of SK-HEP-1 cell proliferation (CellTiter-Glo). The data set is classed as cell-based. Conditions: Homo sapiens, read-out: SK-HEP-1 IC50. The procedure: In this experiment, the inhibitory effect of the compounds on SK-HEP-1 cell proliferation was tested by a CellTiter-Glo method, and the half maximal inhibitory concentration (IC50) of the compounds on the activity of cell proliferation was determined.
1) A 96-well cell culture plate was seeded with 50˜100 μL of SK-HEP-1 cell suspension at a density of 1˜5×10^4 cells/ml. The culture plate was incubated in an incubator for 16˜24 hours (37° C., 5% CO2).
as §1
(§5) 3) 50˜100 μL of CellTiter-Glo reagent were added to each well. Then, the culture plate was shaken or left to stand for 5˜30 minutes at room temperature.
as §2, §3, §4

For the next data set, the target named is FGFR4 kinase (Homo sapiens (Human), UniProt P22455). Briefly: Enzymologic experiment of FGFR4 (TR-FRET). Particulars: FGFR4 kinase activity. In kind it is biochemical. How it is done: In this experiment, the inhibitory effect of the compounds on FGFR4 kinase activity was tested by a fluorescence resonance energy transfer (TR-FRET) method, and the half maximal inhibitory concentration (IC50) of the compounds on the FGFR4 kinase activity was determined.
(§6) 2) 1˜5 μL of diluted solution in gradient of the compound was added.
(§7) 3) 1˜5 μL of a substrate mixture containing substrate polypeptide with a final concentration of 5˜50 nM and ATP with a final concentration of 10˜200 μM was added.
(§8) 4) The mixture was incubated for 0.5˜3 hours at room temperature.
(§9) 5) 10 μL of EDTA and a test solution comprising labeled antibody were added, and the plate was incubated for 1 hour at room temperature.
(§10) 7) The inhibition rates were calculated according to the fluorescence signal values.
On the technique in general: In TR-FRET formats the signal depends on donor and acceptor labels being close together.

The next data set concerns the target FGFR1 kinase (Homo sapiens (Human), UniProt P11362). Briefly: Enzymologic experiment of FGFR1 (TR-FRET). The data set is classed as biochemical. Conditions: FGFR1 kinase activity. How it is done: In this experiment, the inhibitory effect of the compounds on FGFR1 kinase activity was tested by a fluorescence resonance energy transfer (TR-FRET) method, and the half maximal inhibitory concentration (IC50) of the compounds on the FGFR1 kinase activity was determined.
1) 1˜5 μL of FGFR1 enzyme solution was added to a 384-well plate, and the final concentration of the enzyme was 0.1˜5 nM.
as §6, §7, §8, §9
6) The fluorescence signal values of each plate were determined by a microplate reader at 665 nm.
as §10
8) The IC50 of the compound was obtained by curve fitting according to the inhibition rates at different concentrations, and the enzymatic activity of the specific example compounds is shown in Table 1.

In another data set the test system is Hep 3B cells. Briefly: Inhibition of Hep 3B cell proliferation (CellTiter-Glo). In kind it is cell-based. Particulars: Homo sapiens, Hep3B. How it is done: In this experiment, the inhibitory effect of the compounds on Hep 3B cell proliferation was tested by a CellTiter-Glo method, and the half maximal inhibitory concentration (IC50) of the compounds on the activity of cell proliferation was determined.
1) A 96-well cell culture plate was seeded with 50˜100 μL of Hep 3B cell suspension at a density of 1˜5×10^4 cells/ml. The culture plate was incubated in an incubator for 16˜24 hours (37° C., 5% CO2).
as §1, §5, §2, §3

The nature of data set [1]: Pharmacokinetic (PK) analysis in rats. The data set is classed as in vivo, Sprague Dawley (SD) rats. Conditions: SD rats, single intragastric administration, 5 mg/kg; for Peak Time tmax: (sampling in hours); for AUC(0-t) / AUC(0-inf) / half-life / MRT / Cmax: Sprague-Dawley, rat, plasma, po; for AUC(0-t): read-out: Area Under Curve AUC0-t; for AUC(0-inf): read-out: Area Under Curve AUC0-∞; for half-life: read-out: Half-Time t1/2 (converted); for MRT: read-out: Mean Residence Time MRT; for Cmax: read-out: Plasma Concentration Cmax. The procedure:
1) 0.2 ml of intravenous blood was collected and placed in a K2EDTA test tube. The blood was centrifuged at room temperature at the speed of 1000˜3000×g for 5˜20 minutes to isolate the plasma, which was then stored at −80° C.
2) 160 μL of acetonitrile was added to 40 μL of plasma sample for precipitation, and then the mixture was centrifuged at the speed of 500˜2000×g for 5˜20 minutes.
3) 100 μL of treated solution was taken, and the concentration of the test compound was analyzed by LC/MS/MS. The LC/MS/MS analytical instrument was AB Sciex API 4000. • Liquid chromatography analysis: • Condition of Liquid chromatography: Shimadzu LC-20AD pump • Chromatographic column: phenomenex Gemiu 5 um C18 50×4.6 mm • Mobile phase: Solution A is 0.1% formic acid aqueous solution, and Solution B is acetonitrile • Flow rate: 0.8 mL/min • Elution time: 0-3.5 minutes, the eluent was used as follows: […]

Setting [2] is: HuH-7 cell proliferation, 72 hours, CellTiter-Glo.
[3] abbreviates: SK-HEP1, SK-HEP-1 cell proliferation, 72 hours, CellTiter-Glo.
The mark [4] stands for this setting: Hep 3B cell proliferation, 72 hours, CellTiter-Glo, read-out: Hep 3B IC50.
Where [5] appears, read: 72 h, read-out: Hep 3B IC50, Hep 3B cell proliferation, 72 hours, CellTiter-Glo.

Sequence of FGFR4 kinase (P22455 22-802): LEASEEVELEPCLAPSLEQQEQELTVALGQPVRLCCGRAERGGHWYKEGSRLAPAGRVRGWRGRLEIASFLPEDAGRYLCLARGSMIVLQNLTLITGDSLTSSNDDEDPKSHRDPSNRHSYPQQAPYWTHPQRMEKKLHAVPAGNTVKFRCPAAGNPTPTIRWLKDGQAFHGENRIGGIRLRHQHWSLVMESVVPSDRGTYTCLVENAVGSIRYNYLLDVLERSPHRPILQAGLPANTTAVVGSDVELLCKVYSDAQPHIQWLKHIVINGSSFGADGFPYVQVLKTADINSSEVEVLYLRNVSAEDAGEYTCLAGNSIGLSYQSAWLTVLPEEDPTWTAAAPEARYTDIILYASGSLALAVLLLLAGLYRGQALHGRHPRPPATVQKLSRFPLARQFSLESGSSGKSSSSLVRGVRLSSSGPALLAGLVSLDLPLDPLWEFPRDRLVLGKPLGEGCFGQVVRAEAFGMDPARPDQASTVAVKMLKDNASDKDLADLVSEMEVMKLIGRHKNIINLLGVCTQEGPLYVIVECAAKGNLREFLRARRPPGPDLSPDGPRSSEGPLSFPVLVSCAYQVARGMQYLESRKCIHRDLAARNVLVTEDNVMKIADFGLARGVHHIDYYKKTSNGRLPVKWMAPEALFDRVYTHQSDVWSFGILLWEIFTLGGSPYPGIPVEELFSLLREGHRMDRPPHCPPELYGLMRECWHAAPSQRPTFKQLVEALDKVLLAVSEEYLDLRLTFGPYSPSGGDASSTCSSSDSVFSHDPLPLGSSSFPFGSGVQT
Sequence of FGFR1 kinase (P11362 22-822): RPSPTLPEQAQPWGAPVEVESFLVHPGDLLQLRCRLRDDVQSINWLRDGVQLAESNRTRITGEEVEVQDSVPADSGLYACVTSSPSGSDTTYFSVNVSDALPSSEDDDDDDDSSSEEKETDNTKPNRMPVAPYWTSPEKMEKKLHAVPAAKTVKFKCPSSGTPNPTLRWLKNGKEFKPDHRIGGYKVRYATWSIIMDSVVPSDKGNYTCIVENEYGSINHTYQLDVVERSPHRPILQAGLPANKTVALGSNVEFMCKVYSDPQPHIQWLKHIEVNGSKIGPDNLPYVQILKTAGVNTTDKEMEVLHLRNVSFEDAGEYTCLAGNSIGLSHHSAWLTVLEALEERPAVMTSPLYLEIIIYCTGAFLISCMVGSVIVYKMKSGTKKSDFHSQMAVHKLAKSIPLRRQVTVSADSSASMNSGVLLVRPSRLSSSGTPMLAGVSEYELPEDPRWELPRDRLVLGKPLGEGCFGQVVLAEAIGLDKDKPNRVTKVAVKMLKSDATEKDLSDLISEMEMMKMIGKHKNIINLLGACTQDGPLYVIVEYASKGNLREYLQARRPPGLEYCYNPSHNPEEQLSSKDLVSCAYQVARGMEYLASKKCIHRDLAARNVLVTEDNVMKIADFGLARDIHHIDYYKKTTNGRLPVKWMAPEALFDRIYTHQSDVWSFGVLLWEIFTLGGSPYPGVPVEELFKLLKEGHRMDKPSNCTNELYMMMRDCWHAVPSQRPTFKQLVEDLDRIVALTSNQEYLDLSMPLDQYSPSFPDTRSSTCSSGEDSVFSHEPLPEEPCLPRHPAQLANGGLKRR

Take `COc1ncccc1CNc1cc(NC(=O)N2CCCc3cc(CN4CCOCC4=O)c(C=O)nc32)ncc1C#N` [Example 57, N-(5-Cyano-4-(((2-methoxypyridin-3-yl)methyl)amino)pyridin-2-yl)-7-formyl-6-((3-carbonylmorpholino)methyl)-3,4-dihydro-1,8-naphthyridin-1(2H)-carboxamide]: the IC50 with HuH-7 cells (setting [2]) is 24.3 nM; with SK-HEP-1 cells (setting [3]), over 10 µM; against FGFR4 kinase, 7.63 nM; on FGFR1 kinase it was over 10 µM; in the data set on Hep 3B cells (setting [4]), 10.2 nM.
`CO[C@H]1CCOCC1Nc1cc(NC(=O)N2CCCc3cc(CN4CCOCC4=O)c(C=O)nc32)ncc1C#N` (stereo partly drawn) [Example 70, N-(5-Cyano-4-(((3,4)-trans-4-methoxytetrahydro-2H-pyran-3-yl)amino)pyridin-2-yl)-7-formyl-6-((3-carbonylmorpholino)methyl)-3,4-dihydro-1,8-naphthyridin-1(2H) -carboxamide]: the IC50 in the data set on HuH-7 cells (setting [2]) is 19.4 nM; with SK-HEP-1 cells (setting [3]) it was over 10 µM; at FGFR4 kinase, 1.34 nM; on FGFR1 kinase, over 10 µM; in the data set on Hep 3B cells (setting [4]), 6.2 nM.
Consider `CO[C@H]1COCC1Oc1cc(NC(=O)N2CCCc3cc(CN4C(=O)OC[C@@H]4C)c(C=O)nc32)ncc1C#N` (stereo partly drawn) [Example 47, N-(5-Cyano-4-(((3,4)-trans-4-methoxytetrahydrofuran-3-yl)oxy)pyridin-2-yl)-7-formyl-6-(((S)-4-methyl-2-carbonyloxazolidin-3-yl)methyl)-3,4-dihydro-1,8-naphthyridin-1(2H)-carboxamide], for which the IC50 in the data set on HuH-7 cells (setting [2]) was 24.4 nM; in the data set on SK-HEP-1 cells (setting [3]) it was over 10 µM; on FGFR4 kinase it was 4.95 nM; against FGFR1 kinase, over 10 µM; in the data set on Hep 3B cells (setting [4]) it was 9.9 nM.
Turning to `CO[C@@H]1CCN(c2cc(NC(=O)N3CCCc4cc(CN5CCN(C)CC5=O)c(C=O)nc43)ncc2C#N)C1` [Example 64, (R)-N-(5-Cyano-4-(3-methoxypyrrolidin-1-yl)pyridin-2-yl)-7-formyl-6-((4-methyl-2-carbonylpiperazin-1-yl)methyl)-3,4-dihydro-1,8-naphthyridin-1(2H)-carboxamide], the IC50 was 14.6 nM with HuH-7 cells (setting [2]); over 10 µM in the data set on SK-HEP-1 cells (setting [3]); 1.62 nM against FGFR4 kinase; over 10 µM against FGFR1 kinase; 5.3 nM in the data set on Hep 3B cells (setting [4]).
For the molecule `N#Cc1cnc(NC(=O)N2CCCc3cc(CN4CCOCC4=O)c(C=O)nc32)cc1NCCN1CCCC1` [Example 2, N-(5-Cyano-4-((2-(pyrrolidin-1-yl)ethyl)amino)pyridin-2-yl)-7-formyl-6-((3-carbonylmorpholino)methyl)-3,4-dihydro-1,8-naphthyridin-1(2H)-carboxamide], the results for the IC50 against FGFR4 kinase and against FGFR1 kinase were 2.9 nM and over 10 µM, respectively.
For the molecule `CO[C@@H]1CCN(c2cc(NC(=O)N3CCCc4cc(CN5C(=O)OC[C@@H]5C)c(C=O)nc43)ncc2C#N)C1` [Example 38, N-(5-Cyano-4-((R)-3-methoxypyrrolidin-1-yl)pyridin-2-yl)-7-formyl-6-(((S)-4-methyl-2-carbonyloxazolidin-3-yl)methyl)-3,4-dihydro-1,8-naphthyridin-1(2H)-carboxamide], the IC50 in the data set with HuH-7 cells (Huh-7, 72 h) turned out to be 11.8 nM. Further, the IC50 with SK-HEP-1 cells (SK-HEP1, 72 h) is over 10 µM. Moreover, in data set [1], the Peak Time tmax turned out to be 2 h, the AUC(0-t) was 2400 ng·h/mL, the AUC(0-inf) was determined as 2540 ng·h/mL and the half-life is 82.8 min. In addition, in data set [1], the MRT (in general, a mean duration of stay, worked out from the concentration-time curve) came out at 3.91 h and the Cmax turned out to be 2660 ng/mL. The same molecule showed an IC50 at FGFR1 kinase of over 10 µM. In addition, in the data set on Hep 3B cells (setting [5]), the IC50 came out at 13.3 nM.
As to `COC1CCN(c2cc(NC(=O)N3CCCc4cc(CN5CCOCC5=O)c(C=O)nc43)ncc2C#N)C1` (centres unmarked) [Example 4, N-(5-Cyano-4-(3-methoxypyrrolidin-1-yl)pyridin-2-yl)-7-formyl-6-((3-carbonylmorpholino)methyl)-3,4-dihydro-1,8-naphthyridin-1(2H)-carboxamide], the IC50 with HuH-7 cells (Huh-7, 72 h) came out at 18.4 nM. In the data set with SK-HEP-1 cells (SK-HEP1, 72 h), the IC50 is over 10 µM. In addition, in data set [1], the Peak Time tmax came to 2 h, the AUC(0-t) was 8740 ng·h/mL, the AUC(0-inf) worked out at 8740 ng·h/mL and the half-life is 36.6 min. In data set [1], the mean residence time (MRT) came out at 3.07 h and the Cmax worked out at 3370 ng/mL. On FGFR1 kinase, this molecule came in with an IC50 of over 10 µM. The IC50 with Hep 3B cells (setting [5]) came to 2.5 nM.
As for `COCCSc1cc(NC(=O)N2CCCc3cc(CN4CCOCC4=O)c(C=O)nc32)ncc1C#N` [Example 13, N-(5-Cyano-4-((2-methoxyethyl)thio)pyridin-2-yl)-7-formyl-6-((3-carbonylmorpholino)methyl)-3,4-dihydro-1,8-naphthyridin-1(2H)-carboxamide], the IC50 in the data set with HuH-7 cells (Huh-7, 72 h) amounted to 32.3 nM. In the data set with SK-HEP-1 cells (SK-HEP1, 72 h), the IC50 is over 10 µM. Moreover, in data set [1], the Peak Time tmax came to 2 h, the AUC(0-t) worked out at 3510 ng·h/mL, the AUC(0-inf) worked out at 3570 ng·h/mL and the half-life was 69.6 min. Further, in data set [1], the mean residence time (MRT) was 2.8 h and the Cmax was 1200 ng/mL. At FGFR1 kinase, this molecule showed an IC50 of over 10 µM. For the same molecule, the IC50 in the data set with Hep 3B cells (setting [5]) is 20.8 nM.
Consider `CO[C@H]1CCC1Oc1cc(NC(=O)N2CCCc3cc(CN4CCOCC4=O)c(C=O)nc32)ncc1C#N` (stereo partly drawn) [Example 62, N-(5-Cyano-4-cis-((1,2)-2-methoxycyclobutoxy)pyridin-2-yl)-7-formyl-6-((3-carbonylmorpholino)methyl)-3,4-dihydro-1,8-naphthyridin-1(2H)-carboxamide], for which, in the data set on HuH-7 cells (Huh-7, 72 h), the IC50 was determined as 4.2 nM. In the data set with SK-HEP-1 cells (SK-HEP1, 72 h), the IC50 is over 10 µM. Moreover, in data set [1], the Peak Time tmax turned out to be 2 h, the AUC(0-t) is 4020 ng·h/mL, the AUC(0-inf) was 4060 ng·h/mL and the half-life is 51 min. Moreover, in data set [1], the MRT was found to be 2.98 h and the Cmax was 2810 ng/mL. At FGFR1 kinase, this molecule showed an IC50 of over 10 µM. Further, the IC50 with Hep 3B cells (setting [5]) was found to be 3.4 nM.

The record behind these values is patent publication US11667631B2, “FGFR4 inhibitor, preparation method therefor, and applications thereof” (Jiangsu Hansoh Pharmaceutical Group Co., Ltd., priority 2016, dated 2023).
